Earlier results, collected in patent US20240409939A1 (Hoffmann-La Roche Inc., priority 2021, published 2024).

Columns and labels:
FUBP1 = conditions: Xiong et al 2016; cited from earlier work
FUBP1/FUSE interaction = target: T1, FUBP1/FUSE interaction (Homo sapiens, UniProt Q96AE4); conditions: Hosseini et al 2017; cited from earlier work
T1 sequence (Q96AE4 1-644): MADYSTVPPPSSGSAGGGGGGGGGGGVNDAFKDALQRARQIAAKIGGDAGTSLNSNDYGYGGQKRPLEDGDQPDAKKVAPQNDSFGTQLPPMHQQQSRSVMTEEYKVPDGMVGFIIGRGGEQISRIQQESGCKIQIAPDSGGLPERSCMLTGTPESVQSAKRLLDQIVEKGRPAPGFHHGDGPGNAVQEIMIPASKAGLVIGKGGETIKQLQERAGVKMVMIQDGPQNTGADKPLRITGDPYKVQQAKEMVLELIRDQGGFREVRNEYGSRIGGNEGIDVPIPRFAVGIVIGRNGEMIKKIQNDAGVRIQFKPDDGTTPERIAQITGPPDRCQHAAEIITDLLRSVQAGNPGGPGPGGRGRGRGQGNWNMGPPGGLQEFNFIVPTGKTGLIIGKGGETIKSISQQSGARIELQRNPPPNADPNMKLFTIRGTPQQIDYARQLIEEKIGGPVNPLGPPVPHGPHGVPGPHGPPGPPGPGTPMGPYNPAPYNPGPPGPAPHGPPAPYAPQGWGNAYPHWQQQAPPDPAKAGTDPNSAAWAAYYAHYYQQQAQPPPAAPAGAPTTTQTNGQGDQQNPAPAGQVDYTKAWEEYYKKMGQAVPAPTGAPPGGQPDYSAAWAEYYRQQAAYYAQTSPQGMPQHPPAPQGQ

Row | Compound | FUBP1 expression in osteosarcoma cells (FUBP1) | FUBP1 activity (FUBP1/FUSE interaction) (FUBP1/FUSE interaction)
1 | CCCc1cc(C)[nH]c(=O)c1CNC(=O)c1cc(-c2ccnc(N3CCN(C)CC3)c2)cc2c1cnn2C(C)C [GSK343] | inhibits FUBP1 expression | 
2 | CCc1c2c(nc3ccc(O)cc13)-c1cc3c(c(=O)n1C2)COC(=O)[C@]3(O)CC [SN-38, SN-38 (4 (S), 11-Diethyl-4,9-dihydroxy-3,4,12, 14-tetrahydro-1H-pyrano [3′,4′: 6,7]indolizino [1,2-b]quinoline-3,14-dione 7-Ethyl-10-hydroxycamptothecin)] |  | inhibit FUBP1 activity
3 | CC[C@@]1(O)C(=O)OCc2c1cc1n(c2=O)Cc2cc3ccccc3nc2-1 [camptothecin, Camptothecin ((+)-4 (S)-Ethyl-4-hydroxy-3,4,12, 14-tetrahydro-1H-pyrano [3′,4′: 6,7]indolizino [1,2-b]quinoline-3,14-dione)] |  | inhibit FUBP1 activity
